Assay results: patent US9018383B2, “Acylamino-substituted cyclic carboxylic acid derivatives and their use as pharmaceuticals” (Sanofi, priority 2009, dated 2015)

These compounds were tested against human Edg-2 receptor (Homo sapiens, UniProt Q92633) (assay: Determination of Edg-2 receptor inhibition by FLIPR measurements (LPA-mediated calcium liberation)). Conditions: CHO cells overexpressing human Edg-2 receptor, LPA 100 nM, fluo-4 calcium fluorescence; read-out: Inhibitory concentrations IC50 for inhibition of the Edg-2 receptor.
Type: cell-based
Method: A) Determination of Edg-2 Receptor Inhibition by Fluorescence Imaging Plate Reader (FLIPR) Measurements
The inhibition of the Edg-2 receptor (LPA1 receptor) by the compounds of the invention was quantified by the inhibitory effect on the LPA-mediated calcium liberation in a cell-based calcium fluorescence assay by use of Chinese hamster ovarian (CHO) cells in which the human Edg-2 receptor was stably overexpressed (Flp-In system, Invitrogen). […] Changes in intracellular calcium were determined by fluorescence measurement with the calcium-sensitive dye fluo-4 (Invitrogen) in a fluorescence imaging plate reader (FLIPR, […]).
CHO cells stably overexpressing the human Edg-2 receptor were seeded (40.000 per well) in black clear-bottomed poly-D-lysine-coated 96 well plates (Becton Dickinson, Biocoat cellware) approximately 18-24 h prior to the experiments. Cells were grown in an incubator at 37° C., 5% carbon dioxide and 95% humidity in cell culture media based on F-12 glutamax media (Gibco, #31765) supplemented with 1% (vol/vol) penicilline/streptomycine (PAN, #P06-07100), 10% (vol/vol) fetal calf serum (FCS, PAA, #A15-151) and hygromycin B (Invitrogen, #10687-010) 300 mg/l (final concentrations).
Prior to the FLIPR experiment, cells were loaded with fluo-4 acetoxymethyl ester (fluo-4 AM, Invitrogen, #F14202) for 60 min in an incubator at 37° C., 5% carbon dioxide and 95% humidity in dye-loading buffer consisting of Hanks' Balanced Salt Solution (HBSS, Invitrogen, #14065049) supplemented with fluo-4 AM at 2 μM (all data given for final concentration), Pluronic® F-127 0.05% (vol/vol) (Invitrogen, #P-3000 MP), HEPES 20 mM (Gibco, #15630), probenecid 2.5 mM (Sigma, #P-8761) and bovine serum albumin 0.05% (BSA, Sigma, #A-6003), adjusted to pH 7.5 with sodium hydroxide. During cell loading, fluo-4 AM is cleaved by intracellular esterase resulting in trapping of the dye fluo-4 within the cells. Loading was terminated by washing of the cells in a cell washer (Tecan Power washer) three times with the buffer specified afore but without fluo-4 AM and BSA. This latter buffer was also used as the buffer in the subsequent cell fluorescence measurements.
The dye-loaded and washed cells were pre-incubated for approximately 5 min with various concentrations of the test compound added as a solution in DMSO (0.3% vol/vol maximum final concentration of DMSO), or with DMSO in the respective concentration only (positive control). Subsequent addition of LPA (18:1, 1-oleoyl-sn-glycerol 3-phosphate; 100 nM final concentration) leads to liberation of intracellular calcium from internal stores resulting in a large transient increase of the fluo-4 fluorescence signal which was monitored over approximately 3 min. The percent inhibition caused by the test compound was determined from the maximum fluorescence response after LPA addition to cells pre-incubated with the compound as compared to the maximum fluorescence response after LPA addition to cells pre-incubated with DMSO only. All fluorescence values were corrected for the baseline fluorescence values obtained with cells which were pre-incubated with DMSO only and were not treated with LPA (baseline control). All measurements were performed in triplicate. From the percent inhibitions the inhibitory concentration IC50 was determined.

Sequence of human Edg-2 receptor (Q92633 whole entry): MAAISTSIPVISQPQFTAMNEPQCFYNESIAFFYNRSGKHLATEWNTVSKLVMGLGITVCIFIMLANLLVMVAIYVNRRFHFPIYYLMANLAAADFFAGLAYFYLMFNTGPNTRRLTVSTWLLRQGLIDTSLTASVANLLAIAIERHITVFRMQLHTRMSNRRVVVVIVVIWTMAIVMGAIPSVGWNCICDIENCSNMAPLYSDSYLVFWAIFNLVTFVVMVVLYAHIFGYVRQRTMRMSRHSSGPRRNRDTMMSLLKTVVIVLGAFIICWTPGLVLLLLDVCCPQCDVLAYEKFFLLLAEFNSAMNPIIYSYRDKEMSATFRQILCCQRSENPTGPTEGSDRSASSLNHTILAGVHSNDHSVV

Question: How did the IC50 turn out when `COc1ccc(C(=O)N[C@@]2(C(=O)O)C[C@@H]3CC[C@H]2O3)cc1OCCc1cccc(C)c1` (racemic) [Example 126, (1R,2S,4S)-2-[4-Methoxy-3-(2-m-tolyl-ethoxy)-benzoylamino]-7-oxa-bicyclo[2.2.1]heptane-2-carboxylic acid and (1S,2R,4R)-2-[4-methoxy-3-(2-m-tolyl-ethoxy)-benzoylamino]-7-oxa-bicyclo[2.2.1]heptane-2-carboxylic acid] was run?
Answer: < 100 nM

Question: With `COc1ccc(C(=O)NC2(C(=O)O)CCCC2OCc2ccccc2)cc1OCCc1cccc(C)c1` (single isomer, unassigned) [Example 66, 2-Benzyloxy-1-[4-methoxy-3-(2-m-tolyl-ethoxy)-benzoylamino]-cyclopentanecarboxylic acid] as the compound, how does the IC50 read?
Answer: 100 to 1000 nM

Question: Which IC50 does the source give for `COc1ccc(C(=O)NC2(C(=O)O)CCCCCC2)cc1OCCc1cc(C)ccc1F` [Example 1, 1-{3-[2-(2-Fluoro-5-methyl-phenyl)-ethoxy]-4-methoxy-benzoylamino}-cycloheptanecarboxylic acid] here?
Answer: 100 to 1000 nM

Question: With `COc1ccc(C(=O)NC2(C(=O)O)CCCCCC2)cc1OCCc1cccc(C)c1` [Example 2, 1-[4-Methoxy-3-(2-m-tolyl-ethoxy)-benzoylamino]-cycloheptanecarboxylic acid] as the compound, how does the IC50 read?
Answer: < 100 nM

Question: Which IC50 does the source give for `COc1ccc(C(=O)NC2(C(=O)O)CCCCCC2)cc1OCCc1cc(Cl)ccc1F` [Example 3, 1-{3-[2-(5-Chloro-2-fluoro-phenyl)-ethoxy]-4-methoxy-benzoylamino}-cycloheptanecarboxylic acid] here?
Answer: < 100 nM

Question: Which IC50 does the source give for `COc1ccc(C(=O)NC2(C(=O)O)CCCCCC2)cc1OCCc1c(C)n[nH]c1C` [Example 4] here?
Answer: 100 to 1000 nM

Question: Which IC50 does the source give for `COc1ccc(C(=O)NC2(C(=O)O)CCCCCC2)cc1OCCc1cc(OC(F)(F)F)ccc1F` [Example 5] here?
Answer: < 100 nM

Question: With `COc1ccc(C(=O)NC2(C(=O)O)CCCCCC2)cc1OCCc1cccs1` [Example 6] as the compound, how does the IC50 read?
Answer: 100 to 1000 nM

Question: `COc1cccc(CCOc2cc(C(=O)NC3(C(=O)O)CCCCCC3)ccc2OC)c1` [Example 7] was tested. Which IC50 did it give?
Answer: < 100 nM

Question: `COc1ccc(C(=O)NC2(C(=O)O)CCCCCC2)cc1OCCc1ccccc1` [Example 8] was tested. Which IC50 did it give?
Answer: < 100 nM

Question: `COc1ccc(C(=O)NC2(C(=O)O)CCCCCC2)cc1OCC(C)c1ccccc1` (stereo not drawn) [Example 9] was tested. Which IC50 did it give?
Answer: < 100 nM

Question: For `COc1ccc(C(=O)NC2(C(=O)O)CCCCCC2)cc1OCCc1cccc(Cl)c1` [Example 10], which IC50 is on record?
Answer: < 100 nM

Question: How did the IC50 turn out when `COc1ccc(C(=O)NC2(C(=O)O)CCCCCC2)cc1OCCc1ccsc1` [Example 11, 1-{3-[2-(thiophen-3-yl)-ethoxy]-4-methoxy-benzoylamino]-cycloheptanecarboxylic acid] was run?
Answer: 100 to 1000 nM

Question: Which IC50 does the source give for `COc1ccc(C(=O)NC2(C(=O)O)CCCCCC2)cc1OCC1CC=CCC1` (stereo not drawn) [Example 12] here?
Answer: 100 to 1000 nM

Question: `COc1ccc(C(=O)NC2(C(=O)O)CCCCCC2)cc1OCCc1ccccc1F` [Example 13] was tested. Which IC50 did it give?
Answer: < 100 nM

Question: With `CCC(COc1cc(C(=O)NC2(C(=O)O)CCCCCC2)ccc1OC)c1ccccc1` (stereo not drawn) [Example 14] as the compound, how does the IC50 read?
Answer: 100 to 1000 nM

Question: With `COc1ccc(C(=O)NC2(C(=O)O)CCCCCC2)cc1OCCc1ccc(Cl)cc1Cl` [Example 15] as the compound, how does the IC50 read?
Answer: 1000 to 30000 nM

Question: How did the IC50 turn out when `COc1ccc(C(=O)NC2(C(=O)O)CCCCCC2)cc1OCCc1c(F)cccc1Cl` [Example 16] was run?
Answer: < 100 nM

Question: `COc1ccc(C(=O)NC2(C(=O)O)CCCCCC2)cc1OCCc1cc(Cl)ccc1Cl` [Example 17] was tested. Which IC50 did it give?
Answer: < 100 nM

Question: Which IC50 does the source give for `COc1ccc(C(=O)NC2(C(=O)O)CCCCCC2)cc1OCCc1cc(C)ccc1C` [Example 18] here?
Answer: 100 to 1000 nM

Question: For `COc1ccc(C(=O)NC2(C(=O)O)CCCCCC2)cc1OCCc1ccccc1C` [Example 19], which IC50 is on record?
Answer: 100 to 1000 nM

Question: For `COc1ccc(C(=O)NC2(C(=O)O)CCCCCC2)cc1OCCc1cc(F)ccc1F` [Example 20], which IC50 is on record?
Answer: < 100 nM

Question: How did the IC50 turn out when `COc1ccc(C(=O)NC2(C(=O)O)CCCCCC2)cc1OCCc1cccc(Cl)c1F` [Example 21] was run?
Answer: 100 to 1000 nM

Question: With `COc1ccc(C(=O)NC2(C(=O)O)CCCCCC2)cc1OCC1(c2ccccc2)COC1` [Example 22] as the compound, how does the IC50 read?
Answer: < 100 nM

Question: Which IC50 does the source give for `COc1ccc(C(=O)NC2(C(=O)O)CCCCCCC2)cc1OCCc1cccc(C)c1` [Example 23, 1-[4-Methoxy-3-(2-m-tolyl-ethoxy)-benzoylamino]-cyclooctanecarboxylic acid] here?
Answer: 100 to 1000 nM

Question: How did the IC50 turn out when `COc1ccc(C(=O)NC2(C(=O)O)CCCCCCC2)cc1OCCc1cc(C)ccc1F` [Example 24, 1-{3-[2-(2-Fluoro-5-methyl-phenyl)-ethoxy]-4-methoxy-benzoylamino}-cyclooctanecarboxylic acid] was run?
Answer: 100 to 1000 nM

Question: How did the IC50 turn out when `COc1ccc(C(=O)NC2(C(=O)O)CCCOCC2)cc1OCCc1cccc(C)c1` (stereo not drawn) [Example 25, 4-[4-Methoxy-3-(2-m-tolyl-ethoxy)-benzoylamino]-oxepane-4-carboxylic acid] was run?
Answer: 1000 to 30000 nM

Question: With `COc1ccc(C(=O)NC2(C(=O)O)CCCC(C)CC2)cc1OCCc1cccc(C)c1` (stereo not drawn) [Example 26] as the compound, how does the IC50 read?
Answer: < 100 nM

Question: How did the IC50 turn out when `COc1ccc(C(=O)NC2(C(=O)O)CCC(C(F)(F)F)CC2)cc1OCCc1cccc(C)c1` (stereo not drawn) [Example 28] was run?
Answer: < 100 nM

Question: How did the IC50 turn out when `COc1ccc(C(=O)NC2(C(=O)O)CCC(C(C)C)CC2)cc1OCCc1cccc(C)c1` (stereo not drawn) [Example 29] was run?
Answer: < 100 nM

Question: For `CCC1CCC(NC(=O)c2ccc(OC)c(OCCc3cccc(C)c3)c2)(C(=O)O)CC1` (stereo not drawn) [Example 30], which IC50 is on record?
Answer: < 100 nM

Question: For `COc1ccc(C(=O)NC2(C(=O)O)CC3CCC(C3)C2)cc1OCCc1cccc(C)c1` (stereo not drawn) [Example 31], which IC50 is on record?
Answer: < 100 nM

Question: How did the IC50 turn out when `COc1ccc(C(=O)NC2(C(=O)O)CCCCC2C)cc1OCCc1cccc(C)c1` (stereo not drawn) [Example 32] was run?
Answer: 1000 to 30000 nM

Question: For `COc1ccc(C(=O)NC2(C(=O)O)CCC(C)C2)cc1OCCc1cccc(C)c1` (stereo not drawn) [Example 33], which IC50 is on record?
Answer: < 100 nM

Question: `COc1ccc(C(=O)NC2(C(=O)O)CCC2)cc1OCCc1cccc(C)c1` [Example 34] was tested. Which IC50 did it give?
Answer: 1000 to 30000 nM

Question: `COc1ccc(C(=O)NC2(C(=O)O)CCCC2)cc1OCCc1cccc(C)c1` [Example 35] was tested. Which IC50 did it give?
Answer: 1000 to 30000 nM

Question: `COc1ccc(C(=O)NC2(C(=O)O)CCSCC2)cc1OCCc1cccc(C)c1` [Example 36] was tested. Which IC50 did it give?
Answer: 100 to 1000 nM

Question: For `COc1ccc(C(=O)NC2(C(=O)O)CCOCC2)cc1OCCc1cccc(C)c1` [Example 37], which IC50 is on record?
Answer: 1000 to 30000 nM

Question: Which IC50 does the source give for `COc1ccc(C(=O)NC2(C(=O)O)CCCCC2)cc1OCCc1cccc(C)c1` [Example 38] here?
Answer: 100 to 1000 nM

Question: Which IC50 does the source give for `COc1ccc(C(=O)NC2(C(=O)O)C[C@H]3CC[C@]2(C)C3(C)C)cc1OCCc1cccc(C)c1` (stereo partly drawn) [Example 39] here?
Answer: 1000 to 30000 nM

Question: With `C=CC1CC1(NC(=O)c1ccc(OC)c(OCCc2cccc(C)c2)c1)C(=O)O` (stereo not drawn) [Example 40] as the compound, how does the IC50 read?
Answer: 100 to 1000 nM

Question: Which IC50 does the source give for `CCC1CC1(NC(=O)c1ccc(OC)c(OCCc2cccc(C)c2)c1)C(=O)O` (stereo not drawn) [Example 41] here?
Answer: < 100 nM

Question: `COc1ccc(C(=O)N[C@]2(C(=O)O)CC[C@@H](C)CC2)cc1OCCc1cccc(C)c1` [Example 43, trans-1-[4-Methoxy-3-(2-m-tolyl-ethoxy)-benzoylamino]-4-methyl-cyclohexanecarboxylic acid] was tested. Which IC50 did it give?
Answer: < 100 nM

Question: With `COc1ccc(C(=O)NC2(C(=O)O)CCC(F)CC2)cc1OCCc1cccc(C)c1` (stereo not drawn) [Example 44] as the compound, how does the IC50 read?
Answer: 100 to 1000 nM

Question: Which IC50 does the source give for `COc1ccc(C(=O)NC2(C(=O)O)CCC(C)(C)CC2)cc1OCCc1cccc(C)c1` [Example 45] here?
Answer: 100 to 1000 nM

Question: Which IC50 does the source give for `COc1ccc(C(=O)NC2(C(=O)O)CCCC(C)CC2)cc1OCCc1cccc(C)c1` (stereo not drawn) [Example 46] here?
Answer: < 100 nM

Question: Which IC50 does the source give for `COc1ccc(C(=O)NC2(C(=O)O)CC3CCC(C3)C2)cc1OCCc1cccc(C)c1` (stereo not drawn) [Example 47] here?
Answer: < 100 nM

Question: For `COc1ccc(C(=O)NC2(C(=O)O)CCCCC2C)cc1OCCc1cccc(C)c1` (stereo not drawn) [Example 48], which IC50 is on record?
Answer: 1000 to 30000 nM
